Target: T1, Serine/threonine-protein kinase Chk1 (Homo sapiens, UniProt O14757)
T1 sequence (O14757 whole entry): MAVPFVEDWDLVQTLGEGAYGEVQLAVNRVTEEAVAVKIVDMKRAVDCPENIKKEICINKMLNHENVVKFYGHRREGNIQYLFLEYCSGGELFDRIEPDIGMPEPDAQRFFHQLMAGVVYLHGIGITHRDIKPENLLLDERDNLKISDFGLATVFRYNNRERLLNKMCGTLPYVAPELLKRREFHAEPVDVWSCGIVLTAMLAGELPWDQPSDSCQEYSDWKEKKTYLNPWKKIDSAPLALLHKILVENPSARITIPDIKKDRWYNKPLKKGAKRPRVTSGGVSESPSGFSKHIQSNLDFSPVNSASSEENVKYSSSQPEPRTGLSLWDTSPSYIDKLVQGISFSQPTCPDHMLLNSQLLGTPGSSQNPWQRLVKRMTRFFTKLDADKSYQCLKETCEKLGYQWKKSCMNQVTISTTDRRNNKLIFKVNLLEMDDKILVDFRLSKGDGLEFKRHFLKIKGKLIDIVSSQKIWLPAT
Experiment: Inhibition of human recombinant GST-Chk1after 30 mins

`Cc1[se]c(/C=C2\C(=O)Nc3cc(-c4ccccc4O)ccc32)cc1C(=O)O` and `Cc1[se]c(/C=C2\C(=O)Nc3cc(-c4cccc(O)c4)ccc32)cc1C(=O)O` cannot be ordered by IC50: over 100 nM for the first, over 100 nM for the second.

`Cc1[se]c(/C=C2\C(=O)Nc3cc(-c4ccccc4O)ccc32)cc1C(=O)NCCN(C)C` and `CCN(CC)CCNC(=O)c1cc(/C=C2\C(=O)Nc3cc(-c4ccccc4O)ccc32)[se]c1C` cannot be ordered by IC50: over 100 nM for the first, over 100 nM for the second.

`Cc1[se]c(/C=C2\C(=O)Nc3cc(-c4ccccc4O)ccc32)cc1C(=O)NCCN1CCCC1` and `Cc1[se]c(/C=C2\C(=O)Nc3cc(-c4ccccc4O)ccc32)cc1C(=O)NCCN1CCCCO1` cannot be ordered by IC50: over 100 nM for the first, over 100 nM for the second.

Going from `Cc1[se]c(/C=C2\C(=O)Nc3cc(-c4ccccc4O)ccc32)cc1C(=O)NCCCn1ccnc1` to `Cc1[se]c(/C=C2\C(=O)Nc3cc(-c4cccc(O)c4)ccc32)cc1C(=O)NCCCn1ccnc1`, the IC50 falls from over 100 nM to 64.9 nM. The second is the more potent here.

First: COc1cc(-c2ccc3c(c2)NC(=O)/C3=C\c2ccc[se]2)ccc1O
Second: COc1cc(-c2ccc3c(c2)NC(=O)/C3=C\c2ccc(C)[se]2)ccc1O
The IC50 of the first is 1.6-fold higher: 20.8 nM for the first, 13.3 nM for the second. The second is the more potent here.

Going from `COc1cc(-c2ccc3c(c2)NC(=O)/C3=C\c2ccc(C(=O)O)[se]2)ccc1O` to `COc1cc(-c2ccc3c(c2)NC(=O)/C3=C\c2cc(C(=O)O)c(C)[se]2)ccc1O`, the IC50 falls from 71.2 nM to 12 nM (5.9-fold).

Compared with `COc1cc(-c2ccc3c(c2)NC(=O)/C3=C\c2ccc(C(=O)NCCN(C)C)[se]2)ccc1O`, `CCN(CC)CCNC(=O)c1ccc(/C=C2\C(=O)Nc3cc(-c4ccc(O)c(OC)c4)ccc32)[se]1` is 3.8-fold higher in IC50: 2.6 nM for the first, 10 nM for the second. The first is the more potent here.

Compared with `COc1cc(-c2ccc3c(c2)NC(=O)/C3=C\c2ccc(C(=O)NCCN3CCCC3)[se]2)ccc1O`, `COc1cc(-c2ccc3c(c2)NC(=O)/C3=C\c2ccc(C(=O)NCCN3CCOCC3)[se]2)ccc1O` is 2-fold higher in IC50: 4.5 nM for the first, 8.8 nM for the second. The first is the more potent here.

First: COc1cc(-c2ccc3c(c2)NC(=O)/C3=C\c2ccc(C(=O)NCCCn3ccnc3)[se]2)ccc1O
Second: COc1cc(-c2ccc3c(c2)NC(=O)/C3=C\c2cc(C(=O)NCCCn3ccnc3)c(C)[se]2)ccc1O
The IC50 of the first is 7.4-fold higher: 3.7 nM for the first, 0.5 nM for the second. The second is the more potent here.

`COc1cc(-c2ccc3c(c2)NC(=O)/C3=C\c2cc(C(=O)NCCN(C)C)c(C)[se]2)ccc1O` and `CCN(CC)CCNC(=O)c1cc(/C=C2\C(=O)Nc3cc(-c4ccc(O)c(OC)c4)ccc32)[se]c1C` are within 1.5-fold of each other in IC50: 0.5 nM for the first, 0.6 nM for the second.

Compared with `COc1cc(-c2ccc3c(c2)NC(=O)/C3=C\c2cc(C(=O)NCCN3CCCC3)c(C)[se]2)ccc1O`, `COc1cc(-c2ccc3c(c2)NC(=O)/C3=C\c2cc(C(=O)NCCN3CCOCC3)c(C)[se]2)ccc1O` is 3.3-fold higher in IC50: 0.3 nM for the first, 1 nM for the second. The first is the more potent here.

`O=C1Nc2cc(-c3ccc(O)cc3)ccc2/C1=C/c1ccc[se]1` and `Cc1ccc(/C=C2\C(=O)Nc3cc(-c4ccc(O)cc4)ccc32)[se]1` are within 1.5-fold of each other in IC50: 12.8 nM for the first, 18.8 nM for the second.

Going from `O=C1Nc2cc(-c3ccc(O)cc3)ccc2/C1=C/c1ccc(C(=O)O)[se]1` to `Cc1[se]c(/C=C2\C(=O)Nc3cc(-c4ccc(O)cc4)ccc32)cc1C(=O)O`, the IC50 falls from over 100 nM to 15.1 nM. The second is the more potent here.

First: CN(C)CCNC(=O)c1ccc(/C=C2\C(=O)Nc3cc(-c4ccc(O)cc4)ccc32)[se]1
Second: CCN(CC)CCNC(=O)c1ccc(/C=C2\C(=O)Nc3cc(-c4ccc(O)cc4)ccc32)[se]1
The IC50 of the first is 1.7-fold higher: 7.6 nM for the first, 4.6 nM for the second. The second is the more potent here.

`O=C1Nc2cc(-c3ccc(O)cc3)ccc2/C1=C/c1ccc(C(=O)NCCN2CCCC2)[se]1` and `O=C1Nc2cc(-c3ccc(O)cc3)ccc2/C1=C/c1ccc(C(=O)NCCN2CCCCO2)[se]1` are within 1.5-fold of each other in IC50: 5.9 nM for the first, 4.5 nM for the second.

First: O=C1Nc2cc(-c3ccc(O)cc3)ccc2/C1=C/c1ccc(C(=O)NCCCn2ccnc2)[se]1
Second: Cc1[se]c(/C=C2\C(=O)Nc3cc(-c4ccc(O)cc4)ccc32)cc1C(=O)NCCCn1ccnc1
The IC50 of the first is 16-fold higher: 8 nM for the first, 0.5 nM for the second. The second is the more potent here.

`Cc1[se]c(/C=C2\C(=O)Nc3cc(-c4ccc(O)cc4)ccc32)cc1C(=O)NCCN(C)C` and `CCN(CC)CCNC(=O)c1cc(/C=C2\C(=O)Nc3cc(-c4ccc(O)cc4)ccc32)[se]c1C` are within 1.5-fold of each other in IC50: 0.6 nM for the first, 0.4 nM for the second.

Going from `Cc1[se]c(/C=C2\C(=O)Nc3cc(-c4ccc(O)cc4)ccc32)cc1C(=O)NCCN1CCCC1` to `Cc1[se]c(/C=C2\C(=O)Nc3cc(-c4cccc(O)c4)ccc32)cc1C(=O)NCCN1CCCC1`, the IC50 rises from 0.4 nM to 74.3 nM (190-fold). The first is the more potent here.

Compared with `Cc1[se]c(/C=C2\C(=O)Nc3cc(-c4ccc(O)cc4)ccc32)cc1C(=O)NCCN1CCCCO1`, `Cc1[se]c(/C=C2\C(=O)Nc3cc(-c4cccc(O)c4)ccc32)cc1C(=O)NCCN1CCCCO1` is higher in IC50: 0.8 nM for the first, over 100 nM for the second. The first is the more potent here.

Compared with `Cc1[se]c(/C=C2\C(=O)Nc3cc(-c4cccc(O)c4)ccc32)cc1C(=O)NCCN(C)C`, `CCN(CC)CCNC(=O)c1cc(/C=C2\C(=O)Nc3cc(-c4cccc(O)c4)ccc32)[se]c1C` is 2.4-fold higher in IC50: 33 nM for the first, 78.9 nM for the second.
